Biological target: T1, cloned human glucagon receptor (Homo sapiens, UniProt P47871)
T1 construct: expressed in transfected cells; host or cells: 293 HEK cells, hygromycin-selected; crude plasma membranes
Assay: Glucagon Receptor (hGlucR) Binding Assay (SPA, I-125 glucagon competition)
From the text: The second supernate is combined with the first supernate.
The specific activity is 2200 Ci/mmol.

T1 sequence (P47871 26-477): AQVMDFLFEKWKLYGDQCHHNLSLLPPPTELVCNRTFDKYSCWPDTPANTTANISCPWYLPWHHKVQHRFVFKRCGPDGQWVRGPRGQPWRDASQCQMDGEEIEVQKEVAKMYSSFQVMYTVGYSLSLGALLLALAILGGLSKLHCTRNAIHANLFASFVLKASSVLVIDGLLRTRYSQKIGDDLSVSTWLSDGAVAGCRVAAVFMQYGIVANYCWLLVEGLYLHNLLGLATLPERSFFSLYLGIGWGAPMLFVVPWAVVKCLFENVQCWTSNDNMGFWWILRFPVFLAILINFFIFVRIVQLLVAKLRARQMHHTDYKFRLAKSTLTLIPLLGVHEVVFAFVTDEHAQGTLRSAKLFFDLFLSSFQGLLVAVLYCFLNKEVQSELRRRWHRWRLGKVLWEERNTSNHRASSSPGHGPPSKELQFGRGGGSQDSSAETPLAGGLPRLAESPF

Ki [nM] | Compound
266 | CC(C)CC(Cc1ccc(-c2ccc(C(C)(C)C)cc2)cc1)c1ccc(C(=O)NCCC(=O)O)cc1 (centres unmarked)
232 | CCCCCCC(Cc1ccc(-c2ccc(C(F)(F)F)cc2)cc1)c1ccc(C(=O)NCCC(=O)O)cc1 (centres unmarked)

Reference: patent publication US7863329B2 (Eli Lilly and Company, priority 2005, dated 2011)
